A value given as a limit tells only on which side of the number the result lay.

Chain of FASN enzyme (P49327 whole entry): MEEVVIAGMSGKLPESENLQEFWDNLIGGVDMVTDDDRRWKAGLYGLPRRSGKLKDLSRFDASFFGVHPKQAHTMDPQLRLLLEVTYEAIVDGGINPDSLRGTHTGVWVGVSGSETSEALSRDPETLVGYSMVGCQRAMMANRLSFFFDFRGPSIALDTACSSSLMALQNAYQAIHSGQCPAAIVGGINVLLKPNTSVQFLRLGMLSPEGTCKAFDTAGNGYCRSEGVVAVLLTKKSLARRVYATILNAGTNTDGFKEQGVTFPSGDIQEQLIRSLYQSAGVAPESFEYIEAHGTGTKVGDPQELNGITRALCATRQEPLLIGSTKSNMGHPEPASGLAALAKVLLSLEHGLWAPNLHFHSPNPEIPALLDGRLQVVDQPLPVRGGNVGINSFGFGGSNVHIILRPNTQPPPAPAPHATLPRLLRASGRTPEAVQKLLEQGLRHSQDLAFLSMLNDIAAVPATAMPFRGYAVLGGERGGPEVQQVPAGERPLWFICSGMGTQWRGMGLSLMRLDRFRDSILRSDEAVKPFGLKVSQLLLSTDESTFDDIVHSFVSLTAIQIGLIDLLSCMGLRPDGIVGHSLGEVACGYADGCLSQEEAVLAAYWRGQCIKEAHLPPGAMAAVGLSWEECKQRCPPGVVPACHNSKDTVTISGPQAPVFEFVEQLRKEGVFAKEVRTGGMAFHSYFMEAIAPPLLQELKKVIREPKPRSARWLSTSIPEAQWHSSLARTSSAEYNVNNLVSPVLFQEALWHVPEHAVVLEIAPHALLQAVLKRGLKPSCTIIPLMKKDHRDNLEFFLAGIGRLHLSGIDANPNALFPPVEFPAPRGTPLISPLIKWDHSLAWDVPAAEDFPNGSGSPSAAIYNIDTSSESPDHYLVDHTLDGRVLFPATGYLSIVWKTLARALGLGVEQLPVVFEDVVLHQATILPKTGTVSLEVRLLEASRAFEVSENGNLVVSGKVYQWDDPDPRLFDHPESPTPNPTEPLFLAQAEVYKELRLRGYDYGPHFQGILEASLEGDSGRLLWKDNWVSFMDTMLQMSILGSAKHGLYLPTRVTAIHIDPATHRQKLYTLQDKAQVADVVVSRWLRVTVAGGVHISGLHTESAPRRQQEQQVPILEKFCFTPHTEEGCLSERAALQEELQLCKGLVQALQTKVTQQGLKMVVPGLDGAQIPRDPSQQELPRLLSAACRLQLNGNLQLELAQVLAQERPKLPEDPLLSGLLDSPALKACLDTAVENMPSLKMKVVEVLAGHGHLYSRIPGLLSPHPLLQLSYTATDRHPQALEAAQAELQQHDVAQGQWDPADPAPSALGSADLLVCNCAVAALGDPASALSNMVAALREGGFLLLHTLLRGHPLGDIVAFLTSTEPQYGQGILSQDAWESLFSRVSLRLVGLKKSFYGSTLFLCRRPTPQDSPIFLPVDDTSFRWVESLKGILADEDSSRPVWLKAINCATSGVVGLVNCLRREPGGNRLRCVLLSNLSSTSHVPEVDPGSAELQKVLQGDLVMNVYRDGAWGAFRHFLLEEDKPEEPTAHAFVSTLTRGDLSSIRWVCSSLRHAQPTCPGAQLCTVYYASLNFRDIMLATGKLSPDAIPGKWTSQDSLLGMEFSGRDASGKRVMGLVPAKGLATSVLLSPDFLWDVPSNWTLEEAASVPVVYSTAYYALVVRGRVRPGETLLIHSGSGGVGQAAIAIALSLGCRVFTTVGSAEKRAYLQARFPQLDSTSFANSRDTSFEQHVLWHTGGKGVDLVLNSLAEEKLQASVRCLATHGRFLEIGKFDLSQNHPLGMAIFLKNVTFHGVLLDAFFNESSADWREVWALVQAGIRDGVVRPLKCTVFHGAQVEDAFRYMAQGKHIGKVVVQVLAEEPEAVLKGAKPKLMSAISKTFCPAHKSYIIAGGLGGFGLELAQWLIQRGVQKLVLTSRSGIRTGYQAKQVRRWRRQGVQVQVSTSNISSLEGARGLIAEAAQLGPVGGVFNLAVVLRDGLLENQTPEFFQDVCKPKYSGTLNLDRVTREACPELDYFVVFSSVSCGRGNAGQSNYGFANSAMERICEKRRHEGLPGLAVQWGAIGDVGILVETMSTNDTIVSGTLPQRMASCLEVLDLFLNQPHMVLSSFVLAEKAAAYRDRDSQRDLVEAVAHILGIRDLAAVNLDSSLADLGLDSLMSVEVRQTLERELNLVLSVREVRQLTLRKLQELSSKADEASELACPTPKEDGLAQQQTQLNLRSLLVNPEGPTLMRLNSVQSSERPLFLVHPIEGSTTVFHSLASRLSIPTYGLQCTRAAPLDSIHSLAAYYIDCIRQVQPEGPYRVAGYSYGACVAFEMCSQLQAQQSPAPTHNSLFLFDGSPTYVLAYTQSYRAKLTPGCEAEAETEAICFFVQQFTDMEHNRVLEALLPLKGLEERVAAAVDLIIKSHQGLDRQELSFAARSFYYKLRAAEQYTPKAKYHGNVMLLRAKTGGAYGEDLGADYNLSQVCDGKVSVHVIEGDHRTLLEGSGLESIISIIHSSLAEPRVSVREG

The first experiment concerns the target FASN enzyme (Homo sapiens, UniProt P49327). Put plainly: Enzymatic Assay for FASN Inhibitors. The format is biochemical.
Settings: not given
In a few lines:
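40 nM FASN preincubated with compound 60 min at 25° C in HEPES pH 7.3 buffer with 0.04% Triton X-100. Then 20 μM acetyl-CoA, 60 μM malonyl-CoA and 100 μM NADPH added for 90 min, quenched with CPM thiol probe; fluorescence 360/530 nm, IC50 by four-parameter fit.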
By IC50 is commonly meant the point on the concentration scale where inhibition reaches its midpoint. A higher IC50 goes with weaker potency. Regarding `Cc1nn(C)c2ccc(-c3ccc(C(=O)N4CCN(C(=O)C5(N)CC5)CC4)c(F)c3)cc12` [1-{4-[4-(1,3-dimethyl-1H-indazol-5-yl)-2-fluorobenzoyl]piperazine-1-carbonyl}cyclopropan-1-amine], the IC50 is less than 0.5 µM.

The molecule `C[C@H]1CN(C(=O)c2ccc(-c3ccc4c(c3)ncn4C)cc2)CCN1C(=O)C1(O)CC1` [1-[(2S)-2-methyl-4-[4-(1-methyl-1H-1,3-benzodiazol-5-yl)benzoyl]piperazine-1-carbonyl]cyclopropan-1-ol] showed an IC50 of less than 0.5 µM. The molecule `N#Cc1ccc2cc(C3CCN(C(=O)N4CCN(C(=O)C5(O)CC5)CC4)CC3)ccc2c1` [6-{1-[4-(1-hydroxycyclopropanecarbonyl)piperazine-1-carbonyl]piperidin-4-yl}naphthalene-2-carbonitrile] returned an IC50 of less than 0.5 µM. Same read-out and setting: under `O=C(c1ccc(-c2cccc3ocnc23)cc1)N1CCN(C(=O)C2(O)CC2)CC1` [1-[(4-{[4-(1,3-benzoxazol-4-yl)phenyl]carbonyl}piperazin-1-yl)carbonyl]cyclopropan-1-ol] stands less than 0.5 µM; under `C[C@@H]1CN(C(=O)c2ccc(-c3ccc(Cl)cc3F)cc2)CCN1C(=O)C1(O)CC1` [1-[(2R)-4-[4-(4-chloro-2-fluorophenyl)benzoyl]-2-methylpiperazine-1-carbonyl]cyclopropan-1-ol], less than 0.5 µM; under `O=C(c1ccc(-c2ccc3cc(F)ccc3n2)cc1F)N1CCN(C(=O)C2(O)CC2)CC1` [1-[(4-{[2-fluoro-4-(6-fluoroquinolin-2-yl)phenyl]carbonyl}piperazin-1-yl)carbonyl]cyclopropan-1-ol], less than 0.5 µM. Same read-out and setting: under `C[C@@H]1CN(C(=O)C2(O)CC2)CCN1C(=O)c1ccc(-c2ccc3c(c2)ncn3C)cc1` [1-[(3R)-3-methyl-4-[4-(1-methyl-1H-1,3-benzodiazol-5-yl)benzoyl]piperazine-1-carbonyl]cyclopropan-1-ol] stands less than 0.5 µM. `O=C(c1ccc(-c2cccc(S(=O)(=O)NC3CC3)c2)cc1Cl)N1CCN(C(=O)C2(O)CC2)CC1` [3-[3-chloro-4-({4-[(1-hydroxycyclopropyl)carbonyl]piperazin-1-yl}carbonyl)phenyl]-N-cyclopropylbenzene-1-sulfonamide] returned an IC50 of less than 0.5 µM. As to `O=C(c1ccc(-c2cnc3ccccc3c2)cc1)N1CCN(C(=O)C2(O)CC2)CC1` [1-[(4-{[4-(quinolin-3-yl)phenyl]carbonyl}piperazin-1-yl)carbonyl]cyclopropan-1-ol], the IC50 is less than 0.5 µM.

`O=C(c1ccc(N2CCCc3ccccc32)cc1)N1CCN(C(=O)C2(O)CC2)CC1` registered an IC50 of less than 0.5 µM. Same read-out and setting: under `N#CC1(c2cccc(-c3ccc(C(=O)N4CCN(C(=O)C5(O)CC5)CC4)cc3)c2)CC1` stands less than 0.5 µM; under `Nc1noc2ccc(-c3ccc(C(=O)N4CCN(C(=O)C5(N)CC5)CC4)cc3)cc12` [5-{4-[4-(1-aminocyclopropanecarbonyl)piperazine-1-carbonyl]phenyl}-1,2-benzoxazol-3-amine], less than 0.5 µM.

The experiment is the same for the next values; noted with them: FASN enzymatic assay; Table 2-2.
For the molecule `COc1cc(-c2ccc3scnc3c2)ccc1C(=O)N1CCN(C(=O)C2(O)CC2)CC1` [1-[(4-{[4-(1,3-benzothiazol-5-yl)-2-methoxyphenyl]carbonyl}piperazin-1-yl)carbonyl]cyclopropan-1-ol], the IC50 lay within 0.5 to 5 µM.

The same experiment, now with this note: FASN enzymatic assay; Table 2-3.
In turn, `COc1cc(F)c(F)cc1-c1ccc(C(=O)N2CCN(C(=O)C3(O)CC3)CC2)cc1` [1-[(4-{[4-(4,5-difluoro-2-methoxyphenyl)phenyl]carbonyl}piperazin-1-yl)carbonyl]cyclopropan-1-ol] showed an IC50 of no less than 5 µM. The same measure, in the same setting: under `Cc1ccc(F)cc1-c1ccc(C(=O)N2CCN(C(=O)C3(O)CC3)CC2)cc1` [1-[(4-{[4-(5-fluoro-2-methylphenyl)phenyl]carbonyl}piperazin-1-yl)carbonyl]cyclopropan-1-ol] stands no less than 5 µM; under `Cc1ccc(-c2ccc(C(=O)N3CCN(C(=O)C4(O)CC4)CC3)cc2)c(F)c1` [1-[(4-{[4-(2-fluoro-4-methylphenyl)phenyl]carbonyl}piperazin-1-yl)carbonyl]cyclopropan-1-ol], no less than 5 µM.

Values taken from patent US10457655B2, “Compounds and compositions for inhibition of FASN” (FORMA Therapeutics, Inc., priority 2013, dated 2019).
